Data: patent publication US11827866B2 (priority 2007, dated 2023)

Tests used:
[1] = target: subtilisin (Bacillus licheniformis, UniProt P00780); conditions: literature statement, Biochem. Biophys. Res. Com. 176, 1991; cited from earlier work
[2] = system: protease; assay type: biochemical; conditions: pH 9

subtilisin, sequence (P00780 106-379): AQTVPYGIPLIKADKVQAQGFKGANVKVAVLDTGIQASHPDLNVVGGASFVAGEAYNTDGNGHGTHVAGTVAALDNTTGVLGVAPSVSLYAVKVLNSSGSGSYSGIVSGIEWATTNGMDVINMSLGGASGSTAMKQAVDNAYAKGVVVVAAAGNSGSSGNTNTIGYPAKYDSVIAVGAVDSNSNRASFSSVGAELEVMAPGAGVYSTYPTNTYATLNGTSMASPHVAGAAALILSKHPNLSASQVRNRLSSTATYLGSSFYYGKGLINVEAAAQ

Row | SMILES | Residual activity (4 weeks at 40° C.) [2] [%] | further results
1 | OB(O)c1cc(Cl)cc(Cl)c1 [3,5-dichlorophenylboronic acid] | – | capacity as subtilisin inhibitor [1]: particularly effective
2 | [Cl][Al]([Cl])[Cl] [Aluminium Chloride] | 16 | –
3 | Cl.N [Armonium Chloride] | 49 | –
4 | N.O=[N+]([O-])O [Armonium Nitrate] | 41 | –
5 | N.N.O=S(=O)(O)O [Armonium Sulfate] | 43 | –
6 | [Ca+2].[Cl-].[Cl-] [Calcium Chloride] | 22 | –
7 | [Cl-].[Cl-].[Mg+2] [Magnesium Chloride] | 79 | –
8 | O=[N+]([O-])[O-].O=[N+]([O-])[O-].[Mg+2] [Magnesium Nitrate] | 55 | –
9 | O=S(=O)([O-])[O-].[Mg+2] [Magnesium Sulfate] | 37 | –
10 | [Cl-].[K+] [Potassium Chloride] | 34 | –
11 | CC(=O)[O-].[Na+] [Sodium Acetate] | 20 | –
12 | O=C([O-])[O-].[Na+].[Na+] [Sodium Carbonate] | 15 | –
13 | [Cl-].[Na+] [Sodium Chloride] | 32 | –
14 | O=C([O-])CC(O)(CC(=O)[O-])C(=O)[O-].[Na+].[Na+].[Na+] [Sodium Citrate] | 1 | –
15 | O=C[O-].[Na+] [Sodium Formiate] | 29 | –
16 | O=[N+]([O-])[O-].[Na+] [Sodium Nitrate] | 20 | –
17 | O=P(O)(O)O [Sodium Phosphate] | 13 | –
18 | O=S(=O)([O-])[O-].[Na+].[Na+] [Sodium Sulfate] | 22 | –
19 | [Cl-].[Cl-].[Zn+2] [Zink Chloride] | – | Residual activity (2 weeks at 40° C.) [2]: 102%
20 | O=S(=O)([O-])[O-].[Zn+2] [Zink Sulfate] | – | Residual activity (2 weeks at 40° C.) [2]: 88%
21 | CB(O)O [methylboronic acid] | – | capacity as subtilisin inhibitor [1]: poorest inhibitor
